Test results reported in the NIST ThermoML archive (doi:10.1016/j.jct.2012.03.025).

Assay: mn = molality of the nth substance listed, in mol/kg
Settings: 101 kPa, Liquid; for speed of sound: Sing-around technique in a fixed-path interferometer; for mass density: Vibrating tube method

CCCCn1cc[n+](C)c1.F[B-](F)(F)F [1-butyl-3-methylimidazolium tetrafluoroborate] + O
Settings | mass density, 288.15 K [kg/m3] | mass density, 293.15 K [kg/m3] | mass density, 298.15 K [kg/m3] | mass density, 303.15 K [kg/m3] | mass density, 308.15 K [kg/m3] | speed of sound, 288.15 K [m/s] | speed of sound, 293.15 K [m/s] | speed of sound, 298.15 K [m/s] | speed of sound, 303.15 K [m/s] | speed of sound, 308.15 K [m/s]
m1 = 0.0514 | 1001.13 | 1000.19 | 998.93 | 997.535 | 995.822 | 1471.9 | 1487.3 | 1500.9 | 1512.8 | 1523
m1 = 0.1056 | 1003.19 | 1002.21 | 1000.85 | 999.439 | 997.645 | 1476.9 | 1492 | 1505 | 1516.2 | 1526
m1 = 0.1559 | 1005.1 | 1004.06 | 1002.6 | 1001.17 | 999.334 | 1481.5 | 1495.9 | 1508.5 | 1519.5 | 1528.8
m1 = 0.201 | 1006.76 | 1005.67 | 1004.18 | 1002.7 | 1000.82 | 1485.3 | 1499.3 | 1511.3 | 1522.1 | 1531.1
m1 = 0.2573 | 1008.83 | 1007.69 | 1006.13 | 1004.58 | 1002.65 | 1490 | 1503.4 | 1515 | 1525.2 | 1533.7
m1 = 0.3001 | 1010.36 | 1009.21 | 1007.59 | 1005.98 | 1004.05 | 1493.2 | 1506.2 | 1517.5 | 1527.3 | 1535.6
m1 = 0.3504 | 1012.17 | 1010.97 | 1009.26 | 1007.63 | 1005.66 | 1496.9 | 1509.5 | 1520.4 | 1529.8 | 1537.7
m1 = 0.4093 | 1014.26 | 1012.98 | 1011.22 | 1009.47 | 1007.54 | 1501.1 | 1513.2 | 1523.6 | 1532.6 | 1540.1
m1 = 0.4506 | 1015.7 | 1014.4 | 1012.58 | 1010.78 | 1008.78 | 1504 | 1515.6 | 1525.8 | 1534.5 | 1541.7
m1 = 0.508 | 1017.7 | 1016.36 | 1014.5 | 1012.56 | 1010.59 | 1507.4 | 1519 | 1528.5 | 1536.8 | 1543.7

CCCCn1cc[n+](C)c1.O=S(=O)([O-])C(F)(F)F [1-butyl-3-methylimidazolium trifluoromethanesulfonate] + O
Settings | mass density, 288.15 K [kg/m3] | mass density, 293.15 K [kg/m3] | mass density, 298.15 K [kg/m3] | mass density, 303.15 K [kg/m3] | mass density, 308.15 K [kg/m3] | speed of sound, 288.15 K [m/s] | speed of sound, 293.15 K [m/s] | speed of sound, 298.15 K [m/s] | speed of sound, 303.15 K [m/s] | speed of sound, 308.15 K [m/s]
m1 = 0.051 | 1002.68 | 1001.73 | 1000.53 | 999.089 | 997.44 | 1472.8 | 1488 | 1501.7 | 1513.5 | 1523.6
m1 = 0.1023 | 1006.18 | 1005.17 | 1003.9 | 1002.43 | 1000.76 | 1478.5 | 1493.2 | 1506.2 | 1517.4 | 1527
m1 = 0.1499 | 1009.37 | 1008.3 | 1007 | 1005.49 | 1003.78 | 1483.8 | 1497.9 | 1510.2 | 1520.8 | 1529.8
m1 = 0.1996 | 1012.64 | 1011.5 | 1010.17 | 1008.6 | 1006.87 | 1489.1 | 1502.4 | 1514.2 | 1524.5 | 1533
m1 = 0.2496 | 1015.85 | 1014.68 | 1013.28 | 1011.7 | 1009.91 | 1494.2 | 1507 | 1518.1 | 1527.6 | 1535.6
m1 = 0.3019 | 1019.2 | 1017.92 | 1016.52 | 1014.86 | 1013.02 | 1499.2 | 1511.3 | 1521.8 | 1530.8 | 1538.2
m1 = 0.3489 | 1022.13 | 1020.78 | 1019.36 | 1017.64 | 1015.77 | 1503.5 | 1515 | 1525 | 1533.5 | 1540.5
m1 = 0.4034 | 1025.46 | 1024.1 | 1022.57 | 1020.8 | 1018.88 | 1508.2 | 1519 | 1528.4 | 1536.3 | 1542.8
m1 = 0.4532 | 1028.45 | 1027.06 | 1025.5 | 1023.65 | 1021.69 | 1512.3 | 1522.7 | 1531.5 | 1538.9 | 1544.9
m1 = 0.5045 | 1031.5 | 1030.04 | 1028.46 | 1026.57 | 1024.5 | 1517 | 1526.9 | 1534.1 | 1541 | 1546.6
